Measured values taken from ChEMBL document CHEMBL1201862, “PubChem BioAssay data set” (2004).
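Compound exposure: 48 hours, 5 concentrations, 96-well plates. GI50 = concentration required for 50% inhibition of growth.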 Calls of active or inactive are those of the source. Rule as the data show it: active = GI50 up to about 1.1 µM and inactive = higher.

Experiments:
Assay in all cases: DTP human tumour cell line panel, 48 h
DLD-1 = test system: DLD-1
DMS-114 = test system: DMS-114
DMS-273 = test system: DMS-273
KM-20L2 = test system: KM-20L2
LXFL 529 = test system: LXFL 529
M19-MEL = test system: M19-MEL
RXF 631 = test system: RXF 631
XF498 = test system: XF498
HOP-18 = test system: HOP-18

Measured: GI50

Cc1[nH]c2ccccc2c1C1Cc2ccccc2N1C(=O)/C=C\C(=O)O (stereo not given)
inactive: DLD-1 64.9 µM | DMS-114 33.4 µM | DMS-273 58.2 µM | KM-20L2 81.1 µM | LXFL 529 21.6 µM | M19-MEL 34 µM | RXF 631 > 100 µM | XF498 22.4 µM

O=C1CC(c2c(-c3ccccc3)[nH]c3ccccc23)C(=O)N1c1ccccc1 (stereo not given)
inactive: DLD-1 70.5 µM | DMS-114 49.5 µM | DMS-273 > 100 µM | KM-20L2 95.1 µM | LXFL 529 57.1 µM | M19-MEL > 100 µM | RXF 631 56.8 µM | XF498 > 100 µM

CCc1ccccc1NC(=O)C(=O)C(C#N)c1c(Cl)cccc1Cl (stereo not given)
inactive: DLD-1 > 100 µM | DMS-273 > 100 µM | KM-20L2 > 100 µM | LXFL 529 > 100 µM | M19-MEL > 100 µM | RXF 631 > 100 µM | XF498 > 100 µM

Cc1cc2c(cc1C)[n+]([O-])c(C(=O)C/C(=N/OCCCc1ccccc1)C(=O)Nc1cc(Cl)ccc1Cl)c(C)[n+]2[O-]
inactive: DLD-1 > 100 µM | DMS-273 > 100 µM | HOP-18 > 100 µM | KM-20L2 > 100 µM | LXFL 529 > 100 µM | M19-MEL > 100 µM | RXF 631 > 100 µM | XF498 > 100 µM

NNC(=O)/C(=C/c1cccc([N+](=O)[O-])c1)NC(=O)c1ccccc1
inactive: DLD-1 > 100 µM | DMS-114 > 100 µM | DMS-273 > 100 µM | HOP-18 > 100 µM | LXFL 529 > 100 µM | M19-MEL > 100 µM | RXF 631 > 100 µM | XF498 > 100 µM

CCOC(=O)C1=C(C)N(NC(=O)Nc2ccccc2)C2(N)N(NC(=O)Nc3ccccc3)C(C)=C(C(=O)OCC)C12C(=O)OCC (stereo not given)
inactive: DLD-1 53.8 µM | DMS-114 25.5 µM | DMS-273 41.9 µM | HOP-18 26.7 µM | KM-20L2 75.9 µM | LXFL 529 57 µM | M19-MEL 43.3 µM | RXF 631 51.9 µM | XF498 12 µM

O=C1C2C3C=C4c5ccccc5N(c5ccccc5)C4(C2C(=O)N1c1ccccc1)C1C(=O)N(c2ccccc2)C(=O)C31 (stereo not given)
inactive: DLD-1 > 100 µM | DMS-114 > 100 µM | HOP-18 > 100 µM | KM-20L2 > 100 µM | LXFL 529 > 100 µM | M19-MEL 5.13 µM | RXF 631 > 100 µM | XF498 37 µM

CCCCCCCC(=O)O[C@H]1[C@H]2[C@@H](CC1(C)C)C(=O)[C@]13O[C@H]1C(=O)[C@]1(CO1)[C@]23C
inactive: DLD-1 1.89 µM | DMS-114 3.41 µM | DMS-273 5.96 µM | HOP-18 5.33 µM | KM-20L2 4.89 µM | LXFL 529 1.58 µM | M19-MEL 3.41 µM | RXF 631 17.8 µM | XF498 3.26 µM

COc1ccc(C(=O)C(C(=O)CCC(=O)Nc2cccc(Cl)c2)c2ccc(OC)cc2)cc1 (stereo not given)
inactive: DLD-1 > 100 µM | DMS-273 > 100 µM | HOP-18 53.3 µM | KM-20L2 > 100 µM | LXFL 529 > 100 µM | M19-MEL > 100 µM | RXF 631 > 100 µM | XF498 > 100 µM

CCCCCCCCCCCCCCCCc1c(O)nc(NN)nc1C(=O)OC
inactive: DLD-1 > 50 µM | DMS-114 > 50 µM | DMS-273 > 50 µM | HOP-18 > 50 µM | KM-20L2 > 50 µM | LXFL 529 > 50 µM | M19-MEL > 50 µM | RXF 631 > 50 µM | XF498 > 50 µM

Cc1ccc(SSCCCCS(=O)O)cc1
inactive: DLD-1 25.4 µM | DMS-114 11.5 µM | DMS-273 19.6 µM | HOP-18 41.9 µM | KM-20L2 20.4 µM | LXFL 529 12.9 µM | M19-MEL 12.2 µM | RXF 631 11.7 µM | XF498 14.8 µM

N/C(=N\O)N/N=C/c1cccc(F)c1
inactive: DLD-1 64 µM | DMS-114 22.9 µM | DMS-273 48.9 µM | HOP-18 25.1 µM | KM-20L2 32.2 µM | LXFL 529 27 µM | M19-MEL 48.3 µM | RXF 631 26.1 µM | XF498 43.7 µM
